Counter-ions that a name gives are not always drawn. Like-named read-outs stand apart in the source and are kept apart here.
Tests used:
[1] = rcm bond, Grubbs II (20 mol%)/benzoquinone, toluene
[2] = system: A. baumannii ATCC 19606 (HAV#010); assay: MIC by broth microdilution (CLSI); format: cell-based; settings: for MIC: Acinetobacter baumannii, ATCC19606, 24 h, read-out: MIC A. baumannii ATCC 19606
Method: (§1) Minimum inhibitory concentrations (MICs) were determined by the broth microdilution method following the Clinical and Laboratory Standards Institute (CLSI) guidelines. Test organisms consisted of standard reference strains from the American Type Culture Collection (ATCC; Manassa, VA, USA) and clinical isolates obtained from JMI Laboratories Inc. (North Liberty, IA, USA), Micromyx repository (MMX; Kalamazoo, MI, USA), and Massachusetts Eye and Ear Hospital (Boston, USA). Before the start of the MIC experiment, standard and test compound stock solutions were prepared in dimethyl sulfoxide (DMSO, Aldrich D2650) at a stock concentration of 2,560 μg/mL. The compound concentration range typically employed for each experiment was 64-0.06 μg/mL (2.5% final DMSO concentration). Iboxamycin was used as a comparator in all experiments. All bacterial strains were sub-cultured on blood agar plates (tryptic soy agar with 5% sheep blood, Hardy Diagnostics) and incubated overnight at 35° C. Organisms were suspended in cation-adjusted Mueller-Hinton broth (CaMHB, BD 212322) and optical density was adjusted to 0.5 McFarland standard. Suspensions were further diluted to obtain a final inoculum of 5×10^5 CFU/mL for broth microdilution experiments. The minimum concentration of compound required to inhibit visible bacterial growth after 24 h of incubation was recorded as the MIC in μg/mL. MICs for P. aeruginosa were recorded in cation-adjusted Mueller-Hinton broth which had been pre-treated with Chelex 100 ion exchange resin according to procedures reported in Ito et al. Antimicrob Agents Chemother (2016) 60 (12), 7396-7401.

E. faecium JMI-990536 = assay: MIC by broth microdilution (CLSI); format: cell-based; settings: for MIC: Enterococcus faecium, JMI990536, 24 h, read-out: MIC E. faecium JMI-990536
Method: as §1

[3] = system: S. aureus ATCC 29213 (HAV#001); assay: MIC by broth microdilution (CLSI); format: cell-based; settings: for MIC: Staphylococcus aureus, ATCC29213, 24 h, read-out: MIC S. aureus ATCC 29213
Method: as §1

S. aureus MMX 3035 = assay: MIC by broth microdilution (CLSI); format: cell-based; settings: for MIC: Staphylococcus aureus, MMX3035, 24 h, read-out: MIC S. aureus MMX 3035
Method: as §1

K. pneumoniae JMI-991193 = assay: MIC by broth microdilution (CLSI); format: cell-based; settings: for MIC: Klebsiella pneumoniae, JMI991193, 24 h, read-out: MIC K. pneumoniae JMI-991193
Method: as §1

[4] = system: E. coli ATCC 25922 (HAV#006); assay: MIC by broth microdilution (CLSI); format: cell-based; settings: for MIC: Escherichia coli, ATCC25922, 24 h, read-out: MIC E. coli ATCC 25922
Method: as §1

E. coli ΔtolC = assay: MIC by broth microdilution (CLSI); format: cell-based; settings: CaMHB, 24 h incubation; for MIC: Escherichia coli, 24 h, read-out: MIC E. coli ΔtolC, ΔtolC
Method: as §1

[5] = system: E. faecalis ATCC 29212 (HAV#005); assay: MIC by broth microdilution (CLSI); format: cell-based; settings: for MIC: Enterococcus faecalis, ATCC29212, 24 h, read-out: MIC E. faecalis ATCC 29212
Method: as §1

S. aureus Clinical (cfr) = assay: MIC by broth microdilution (CLSI); format: cell-based; settings: for MIC: Staphylococcus aureus, 24 h, read-out: MIC S. aureus Clinical (cfr)
Method: as §1

E. coli lptD mutant = assay: MIC by broth microdilution (CLSI); format: cell-based; settings: CaMHB, 24 h incubation; for MIC: Escherichia coli, 24 h, read-out: MIC E. coli lptD mutant, lptD mutant / ΔlptD mutant
Method: as §1

[6] = from C=CCCCCS[C@H]1O[C@H]([C@H](N[S@](=O)C(C)(C)C)[C@H](C)C=C)[C@H](OC(C)=O)[C@H](OC(C)=O)[C@H]1OC(C)=O, 12-membered ring, 2.0 mM, 0.25 h
[7] = HAV#010, ATCC 19606, CaMHB, 24 h incubation
[8] = HAV#001, ATCC 29213, CaMHB, 24 h incubation
[9] = MMX 3035, CaMHB, 24 h incubation
[10] = JMI-991193, CaMHB, 24 h incubation
[11] = HAV#006, ATCC 25922, CaMHB, 24 h incubation
[12] = HAV#005, ATCC 29212, CaMHB, 24 h incubation
[13] = Clinical (cfr), CaMHB, 24 h incubation

## CC(=O)O[C@@H]1[C@H](OC(C)=O)[C@@H](OC(C)=O)[C@@H]2O[C@@H]1[C@H](N[S@](=O)C(C)(C)C)C(C)/C=C/CCCCS2 (stereo partly shown)
[1]; [6]
  ring closure, isolated yield: 64.8%

## CC(=O)O[C@@H]1[C@H](OC(C)=O)[C@@H](OC(C)=O)[C@@H]2O[C@@H]1[C@H](N[S@](=O)C(C)(C)C)C(C)/C=C\CCCCS2 (stereo partly shown)
[1]; [6]
  ring closure, isolated yield: 6.3%

## CC(C)(C)[S@@](=O)N[C@@H]1C/C=C\CC(CO[Si](C)(C)C(C)(C)C)S[C@H]2O[C@H]1[C@H](OC(=O)c1ccccc1)[C@H](OC(=O)c1ccccc1)[C@H]2OC(=O)c1ccccc1 (stereo partly shown)
[1]; from C=CCC(CO[Si](C)(C)C(C)(C)C)S[C@H]1O[C@H]([C@@H](CC=C)N[S@](=O)C(C)(C)C)[C@H](OC(=O)c2ccccc2)[C@H](OC(=O)c2ccccc2)[C@H]1OC(=O)c1ccccc1, 10-membered ring, 1.0 mM, 0.25 h
  ring closure, isolated yield: 85%

## C[C@@H]1/C=C\C[C@@H](CO[Si](C)(C)C(C)(C)C)S[C@H]2O[C@H]([C@@H]1N[S@](=O)C(C)(C)C)[C@H](OC(=O)c1ccccc1)[C@H](OC(=O)c1ccccc1)[C@H]2OC(=O)c1ccccc1
[1]; from C=CCC(CO[Si](C)(C)C(C)(C)C)S[C@H]1O[C@H]([C@H](N[S@](=O)C(C)(C)C)C(C)C=C)[C@H](OC(=O)c2ccccc2)[C@H](OC(=O)c2ccccc2)[C@H]1OC(=O)c1ccccc1, 10-membered ring, 2.0 mM, 0.25 h
  ring closure, isolated yield: 85%

## O=C(N[C@@H]1C/C=C\CCS[C@H]2O[C@H]1[C@H](O)[C@H](O)[C@H]2O)C(F)(F)F
[1]; from C=CCCS[C@H]1O[C@H]([C@@H](CC=C)NC(=O)C(F)(F)F)[C@H](O)[C@H](O)[C@H]1O, 10-membered ring, 0.4 mM, 0.33 h
  ring closure, isolated yield: 39%

## CC(C)C[C@@H]1CCO[C@@H]2[C@H](CN[C@@H]2C(=O)N[C@@H]2C/C=C\C[C@@H](c3cn(-c4ccc(F)cc4)nn3)S[C@H]3O[C@H]2[C@H](O)[C@H](O)[C@H]3O)C1 [FSA1608021, (4S,5aS,8S,8aR)—N-((1R,3S,8R,9R,10R,11S,12R,Z)-3-(1-(4-fluorophenyl)-1H-1,2,3-triazol-4-yl)-10,11,12-trihydroxy-13-oxa-2-thiabicyclo[7.3.1]tridec-5-en-8-yl)-4-isobutyloctahydro-2H-oxepino[2,3-c]pyrrole-8-carboxamide formate salt]
[2]
  MIC: 4 mg/L
E. faecium JMI-990536
  MIC: 0.5 mg/L
[3]
  MIC: 0.5 mg/L
S. aureus MMX 3035
  MIC: 2 mg/L
K. pneumoniae JMI-991193
  MIC: 4 mg/L
[4]
  MIC: 1 mg/L
E. coli ΔtolC
  MIC: 1 mg/L
[5]
  MIC: 0.5 mg/L
S. aureus Clinical (cfr)
  MIC: 4 mg/L
E. coli lptD mutant
  MIC: 0.25 mg/L

## CC(C)C[C@@H]1CCO[C@@H]2[C@H](CN[C@@H]2C(=O)N[C@H]2[C@H]3O[C@H](S[C@H](c4cn(-c5cc(F)c(F)cc5F)nn4)C/C=C\[C@H]2C)[C@H](O)[C@@H](O)[C@H]3O)C1 [FSA1609051, (4S,5aS,8S,8aR)-4-isobutyl-N-((1R,3S,7R,8R,9R,10R,11S,12R,Z)-10,11,12-trihydroxy-7-methyl-3-(1-(2,4,5-trifluorophenyl)-1H-1,2,3-triazol-4-yl)-13-oxa-2-thiabicyclo[7.3.1]tridec-5-en-8-yl) octahydro-2H-oxepino[2,3-c]pyrrole-8-carboxamide formate salt]
[2]; [7]
  MIC: 2 mg/L
E. faecium JMI-990536; JMI-990536, CaMHB, 24 h incubation
  MIC: 0.5 mg/L
[3]; [8]
  MIC: 0.25 mg/L
S. aureus MMX 3035; [9]
  MIC: 0.5 mg/L
K. pneumoniae JMI-991193; [10]
  MIC: 8 mg/L
[4]; [11]
  MIC: 4 mg/L
E. coli ΔtolC
  MIC: 0.25 mg/L
[5]; [12]
  MIC: 0.25 mg/L
S. aureus Clinical (cfr); [13]
  MIC: 0.5 mg/L
E. coli lptD mutant
  MIC: 0.5 mg/L

## CC(C)C[C@@H]1CCO[C@@H]2[C@H](CN[C@@H]2C(=O)N[C@H]2[C@H]3O[C@H](S[C@H](c4cn(-c5ccc(F)cc5F)nn4)C/C=C\[C@H]2C)[C@H](O)[C@@H](O)[C@H]3O)C1 [FSA1609052, (4S,5aS,8S,8aR)—N-((1R,3S,7R,8R,9R,10R,11S,12R,Z)-3-(1-(2,4-difluorophenyl)-1H-1,2,3-triazol-4-yl)-10,11,12-trihydroxy-7-methyl-13-oxa-2-thiabicyclo[7.3.1]tridec-5-en-8-yl)-4-isobutyloctahydro-2H-oxepino[2,3-c]pyrrole-8-carboxamide formate salt]
[2]
  MIC: 1 mg/L
E. faecium JMI-990536
  MIC: 0.5 mg/L
[3]
  MIC: 0.25 mg/L
S. aureus MMX 3035
  MIC: 0.5 mg/L
K. pneumoniae JMI-991193
  MIC: 4 mg/L
[4]
  MIC: 2 mg/L
E. coli ΔtolC
  MIC: 0.125 mg/L
[5]
  MIC: 0.25 mg/L
S. aureus Clinical (cfr)
  MIC: 0.5 mg/L
E. coli lptD mutant
  MIC: 0.125 mg/L

## CC(C)C[C@@H]1CCO[C@@H]2[C@H](CN[C@@H]2C(=O)N[C@H]2[C@H]3O[C@H](SCCC/C=C/[C@H]2C)[C@H](O)[C@@H](O)[C@H]3O)C1 [FSA1609095, (4S,5aS,8S,8aR)-4-isobutyl-N-((1R,8R,9R,10R,11R,12S,13R,E)-11,12,13-trihydroxy-8-methyl-14-oxa-2-thiabicyclo[8.3.1]tetradec-6-en-9-yl) octahydro-2H-oxepino[2,3-c]pyrrole-8-carboxamide formate salt]
[2]; HAV#010, ATCC 19606, CaMHB, 24 h incubation, formate salt
  MIC A. baumannii ATCC 19606: 4 mg/L
E. faecium JMI-990536; JMI-990536, CaMHB, 24 h incubation, formate salt
  MIC E. faecium JMI-990536: 2 mg/L
[3]; HAV#001, ATCC 29213, CaMHB, 24 h incubation, formate salt
  MIC S. aureus ATCC 29213: ≤0.06 mg/L
S. aureus MMX 3035; MMX 3035, CaMHB, 24 h incubation, formate salt
  MIC S. aureus MMX 3035: 2 mg/L
K. pneumoniae JMI-991193; JMI-991193, CaMHB, 24 h incubation, formate salt
  MIC K. pneumoniae JMI-991193: 16 mg/L
[4]; HAV#006, ATCC 25922, CaMHB, 24 h incubation, formate salt
  MIC E. coli ATCC 25922: 8 mg/L
E. coli ΔtolC; ΔtolC, formate salt
  MIC E. coli ΔtolC: 4 mg/L
[5]; HAV#005, ATCC 29212, CaMHB, 24 h incubation, formate salt
  MIC E. faecalis ATCC 29212: 0.125 mg/L
S. aureus Clinical (cfr); Clinical (cfr), CaMHB, 24 h incubation, formate salt
  MIC S. aureus Clinical (cfr): 8 mg/L
E. coli lptD mutant; lptD mutant / ΔlptD mutant, formate salt
  MIC E. coli lptD mutant: 0.5 mg/L

## CC(C)C[C@@H]1CCO[C@@H]2[C@H](CN[C@@H]2C(=O)N[C@H]2[C@H]3O[C@H](SCCC/C=C\[C@H]2C)[C@H](O)[C@@H](O)[C@H]3O)C1 [FSA1609096, (4S,5aS,8S,8aR)-4-isobutyl-N-((1R,8R,9R,10R,11R,12S,13R,Z)-11,12,13-trihydroxy-8-methyl-14-oxa-2-thiabicyclo[8.3.1]tetradec-6-en-9-yl) octahydro-2H-oxepino[2,3-c]pyrrole-8-carboxamide formate salt]
[2]; [7]
  MIC: 1 mg/L
E. faecium JMI-990536
  MIC: 0.125 mg/L
[3]; [8]
  MIC: ≤ 0.06 mg/L
S. aureus MMX 3035; [9]
  MIC: 0.25 mg/L
K. pneumoniae JMI-991193; [10]
  MIC: 8 mg/L
[4]; [11]
  MIC: 2 mg/L
E. coli ΔtolC
  MIC: 0.25 mg/L
[5]; [12]
  MIC: ≤ 0.06 mg/L
S. aureus Clinical (cfr); [13]
  MIC: 0.25 mg/L
E. coli lptD mutant
  MIC: 0.125 mg/L
